In patent US10500198B2, “Bis-benzylidine piperidone proteasome inhibitor with anticancer activity” (The Johns Hopkins University, priority 2013, dated 2019):

Assays:
[1] = molecular target: T1, RPN13 (Homo sapiens, UniProt Q16186); assay: Biotin labeling assay; format: binding; conditions: cell lysate or purified RP, streptavidin-peroxidase blot
T1 construct: endogenous in cells; host or cells: HeLa, HS578T cell lysate
Experimental: FIGS. 10 A-10E show a series of graphs and immunoblots showing the effects of several compounds on cell viability and proteasome activity. […] 10B and 10C show immunoblots of the proteasome activity of cell lines treated with the indicated compounds. […] IC50 values were determined in triplicate. In FIG. 10B, HeLa cells were treated for 12 hr and the cell lysate was subjected to immunoblot analysis with anti-Ubiquitin antibody. In FIG. 10C, SiHa cells were treated with the indicated compounds for 12 hr and the lysate subjected to Western blot analysis with anti-Ubiquitin antibody. HeLa cell lysate was treated with RA190B, subjected to SDS-PAGE, and probed with streptavidin-peroxidase following protein transfer to a polyvinylidene difluoride (PVDF) membrane. The streptavidin-peroxidase bound to biotinylated cellular proteins, but a striking new band at 42 kDa appeared in RA190B-treated samples (FIG. 2A). […] IC50 values were determined in triplicate.
To eliminate the possibility that another RP component was required for RA190B interaction, RPN13 or an irrelevant protein (L2) was overexpressed in bacteria. Cell lysate harvested from bacteria either with or without […] induction of ectopic protein expression was labeled with RA190B and probed by blotting with streptavidin-peroxidase. RA190B reacted strongly with a 42 kDa protein only in lysates of bacteria expressing RPN13 (FIG. 2D). […] 800 μL fractions were collected and alternate fractions (1,3,5,7,9,11,13,15,17) were analyzed for the presence of proteasomal proteins (RPN13, RPN2, RPN1 and UCH37) by Western blot analysis.
Human cells (5×10^6 HeLa or 293TT cells) were lysed using MPER (Pierce) lysis buffer (500 μL). RPN13 or HPV L2 transformed bacterial cells (500 μL of culture) were centrifuged to harvest the cells which were re-suspended in 500 μL BPER (Pierce). Cell lysates were centrifuged at 10,000 rpm briefly (2 min) at 4° C. to remove cell debris. Lysate supernatant (200 μL) was pre cleared with streptavidin dyna beads (20 μL) for 1 h at 4° C. to remove non-specific biotin binding and incubated with compounds (indicated concentrations or 20 μM) at 4° C. for 1 hr. An equal amount of each sample (20 μL of lysate) was mixed with an equal volume of Laemmli sample buffer (20 μL) (BioRad) and was boiled for 5 min. […] (24 V). Membrane was blocked with 5% BSA in PBST for 1 hr at room temperature and washed for 20 min (3×PBST). Then the membrane was probed with HRP-streptavidin (1:10,000 in PBST) for 1 hr at room temperature and washed for 30 min (3×PBST) and developed using HyGLO chemiluminescent detection reagent (Denville) for biotin recognition. For the purified enzyme assay, 19S purified proteasome (R&D Systems, Cat. No. E-366) (500 ng) in 19S buffer (20 mM HEPES, 20 mM NaCl, 1 mM DTT, 15% Glycerol) was incubated with compounds (20 μM) for 1 hr at room temperature and mixed with an equal volume of Laemmli sample buffer (20 μL) (BioRad) and was boiled for 5 min. Each sample was loaded onto gel and followed the western blot protocol mentioned above.
Purified 19S proteasome (500 ng) was incubated with corresponding compounds for 30 min and subjected to immunoblot and probed with HRP-conjugated streptavidin. In FIG. 23, the single band at 42 KDa indicates Rpn13 binding to 195. RA183B (20 μM) is used as positive control for Rpn13 binding. Competition experiments were done with RA183 (100 μM) and RA195 (100 μM) along with RA195B (20 μM).

[2] = test system: HCC 1806, HS578T, BT549 and MB-231 breast cancer cells; assay: Viability of triple negative breast cancer cell lines; format: cell-based; conditions: 48 hours
Experimental: To test the efficacy of various RA compound derivatives on the viability of breast cancer cells, breast cancer cell lines were treated in vitro with varying concentrations of selected compounds. […] FIGS. 16A-16E are a series of data graphs and a western blot showing the efficacy of select compounds against various breast cancer cell lines. […] Briefly HS578T cell lysate was incubated with corresponding compounds for the period of 1 hr at 4 C and subjected to Western blot analysis and probed for HRP-Streptavidin.

T1 sequence (Q16186 whole entry): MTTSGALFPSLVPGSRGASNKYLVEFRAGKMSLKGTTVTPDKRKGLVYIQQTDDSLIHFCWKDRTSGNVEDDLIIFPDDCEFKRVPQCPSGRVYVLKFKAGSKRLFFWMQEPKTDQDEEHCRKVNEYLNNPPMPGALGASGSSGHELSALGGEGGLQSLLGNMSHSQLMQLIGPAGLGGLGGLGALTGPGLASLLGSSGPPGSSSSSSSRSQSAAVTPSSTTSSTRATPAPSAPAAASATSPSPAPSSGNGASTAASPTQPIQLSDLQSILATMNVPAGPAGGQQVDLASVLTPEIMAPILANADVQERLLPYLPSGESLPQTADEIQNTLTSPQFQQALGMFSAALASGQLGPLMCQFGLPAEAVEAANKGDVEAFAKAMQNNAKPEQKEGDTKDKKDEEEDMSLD

labeling of / competition for RPN13 (42 kDa band) [1]: competes the binding of RA190B to RPN13
Compound: C=CC(=O)N[C@@H](Cc1ccccc1)C(=O)N1C/C(=C\c2ccc(Cl)c(Cl)c2)C(=O)/C(=C/c2ccc(Cl)c(Cl)c2)C1 [RA190Acr]
potency relative to RA190 [2]: potency similar to RA190
